In patent publication US8664245B2, “Fumarate salts of a histamine H3 receptor antagonist” (Sanofi, priority 2009, dated 2014):

Tests used:
Assay type in all cases: physicochemical
[1] = Dynamic Vapor Sorption (DVS) water sorption profile
Protocol: The water sorption profile of a compound of the invention is determined using a SMS Instruments Dynamic Vapor Sorption Analyzer (DVS) Model DVS-Advantage. Relative humidity (RH) and weight are calibrated using standards. The powder of the relevant compound of the invention is loaded and dried at 0% RH for 3 hours prior to starting the experiment. The RH is stepped from 0.1 to 94.4% in 11 steps. The specimen weight is considered constant at each step when percent mass change is less than 0.01% over a 5-minute interval with a minimum absolute equilibration time of 15 minutes and maximum equilibration time of 180 minutes.

[2] = Stability testing: storage at 60° C. and ambient RH for two weeks; conditions: solid, ambient RH, 14 days
Protocol: Stability Testing 1. Storage at 60° C. and Ambient RH for Two Weeks.
Approximately 400 mg of the difumarate monohydrate salt was weighed into a scintillation vial and placed into an oven set to 60° C. The sample was tested for appearance, then diluted with ethanol to approximately 1 mg/mL and analyzed for related substances and optical enantiomer by HPLC.

[3] = Stability testing: storage at 60° C./80% RH for two weeks; conditions: solid, 14 days
Protocol: 2. Storage at 60° C./80% RH and Ambient RH for Two Weeks.
A glass desiccation chamber was pre-equilibrated overnight with a saturated KBr solution to 79.3% RH within an […] oven. Approximately 400 mg of the difumarate monohydrate was weighed into a scintillation vial and placed into the chamber, which was then sealed to maintain the environment. Samples were tested for appearance, then diluted with ethanol to approximately 1 mg/mL and analyzed for related substances and optical enantiomer by HPLC.

[4] = Stability testing: storage at 80° C./80% RH for 4 days; conditions: solid
Protocol: 3. Storage at 80° C./80% RH for 4 Days
A glass desiccation chamber was pre-equilibrated overnight with a saturated KBr solution to 79.3% RH within an 80° C. oven. Approximately 100 mg of the difumarate monohydrate salt was weighed into respective scintillation vials and these vials were placed into the chamber, which was then sealed to maintain the environment. The sample was tested on day 4 for appearance, then diluted with ethanol to approximately 1 mg/mL and analyzed by HPLC versus a control (time 0) sample.

## CN1CCC[C@H]1CCNS(=O)(=O)c1ccc2c(c1)CN(CC1CCCCC1)CC2.O=C(O)/C=C/C(=O)O [difumarate monohydrate salt, 2-(cyclohexylmethyl)-N-{2-[(2S)-1-methylpyrrolidin-2-yl]ethyl}-1,2,3,4-tetrahydroisoquinoline-7-sulfonamide difumarate monohydrate]
[1]; 0.6 % RH, 25° C.
  Change in Mass (%) - dry, Desorption: 0.0%
  Change in Mass (%) - dry, Sorption: 0.0%
[1]; 10.2 % RH, 25° C.
  Change in Mass (%) - dry, Desorption: 2.9%
  Change in Mass (%) - dry, Sorption: 2.8%
[1]; 19.6 % RH, 25° C.
  Change in Mass (%) - dry, Desorption: 2.9%
  Change in Mass (%) - dry, Sorption: 2.9%
[1]; 29.4 % RH, 25° C.
  Change in Mass (%) - dry, Desorption: 3.0%
  Change in Mass (%) - dry, Sorption: 3.0%
[1]; 38.5 % RH, 25° C.
  Change in Mass (%) - dry, Desorption: 3.0%
  Change in Mass (%) - dry, Sorption: 3.0%
[1]; 48.5 % RH, 25° C.
  Change in Mass (%) - dry, Desorption: 3.0%
  Change in Mass (%) - dry, Sorption: 3.0%
[1]; 57.5 % RH, 25° C.
  Change in Mass (%) - dry, Desorption: 3.1%
  Change in Mass (%) - dry, Sorption: 3.1%
[1]; 67.1 % RH, 25° C.
  Change in Mass (%) - dry, Desorption: 3.1%
  Change in Mass (%) - dry, Sorption: 3.1%
[1]; 77.0 % RH, 25° C.
  Change in Mass (%) - dry, Desorption: 3.2%
  Change in Mass (%) - dry, Sorption: 3.1%
[1]; 87.0 % RH, 25° C.
  Change in Mass (%) - dry, Desorption: 3.2%
  Change in Mass (%) - dry, Sorption: 3.2%
[1]; 94.2 % RH, 25° C.
  Change in Mass (%) - dry, Desorption: 3.3%
  Change in Mass (%) - dry, Sorption: 3.3%
[2]
  chemical stability (related substances and optical enantiomer by HPLC, appearance): stable in the solid state with a minimal increase in impurity levels and no observable change in appearance
  physical stability (physical form by XRPD and DSC-TGA): no observable change in physical form
[3]
  chemical stability (related substances and optical enantiomer by HPLC, appearance): stable in the solid state with a minimal increase in impurity levels and no observable change in appearance
  physical stability (physical form by XRPD and DSC-TGA): no observable change in physical form
[4]
  chemical stability (HPLC versus time 0 control, appearance): stable in the solid state with no observable chemical change

## CN1CCC[C@H]1CCNS(=O)(=O)c1ccc2c(c1)CN(CC1CCCCC1)CC2.O=C(O)/C=C/C(=O)O [hemifumarate dihydrate, 2-(cyclohexylmethyl)-N-{2-[(2S)-1-methylpyrrolidin-2-yl]ethyl}-1,2,3,4-tetrahydroisoquinoline-7-sulfonamide hemifumarate dihydrate]
[1]; 0.6 % RH, 25° C. (Table 8)
  Change in Mass (%) - dry, Desorption: 0.00%
  Change in Mass (%) - dry, Sorption: 0.00%
[1]; 10.1 % RH, 25° C.
  Change in Mass (%) - dry, Desorption: 0.56%
  Change in Mass (%) - dry, Sorption: 0.25%
[1]; 19.4 % RH, 25° C.
  Change in Mass (%) - dry, Desorption: 6.71%
  Change in Mass (%) - dry, Sorption: 3.53%
[1]; 29.0 % RH, 25° C.
  Change in Mass (%) - dry, Desorption: 6.85%
  Change in Mass (%) - dry, Sorption: 3.87%
[1]; 37.8 % RH, 25° C.
  Change in Mass (%) - dry, Desorption: 6.89%
  Change in Mass (%) - dry, Sorption: 6.50%
[1]; 47.7 % RH, 25° C.
  Change in Mass (%) - dry, Desorption: 6.97%
  Change in Mass (%) - dry, Sorption: 6.89%
[1]; 56.4 % RH, 25° C.
  Change in Mass (%) - dry, Desorption: 7.10%
  Change in Mass (%) - dry, Sorption: 7.01%
[1]; 65.7 % RH, 25° C.
  Change in Mass (%) - dry, Desorption: 7.21%
  Change in Mass (%) - dry, Sorption: 7.13%
[1]; 75.3 % RH, 25° C.
  Change in Mass (%) - dry, Desorption: 7.33%
  Change in Mass (%) - dry, Sorption: 7.32%
[1]; 84.8 % RH, 25° C.
  Change in Mass (%) - dry, Desorption: 7.66%
  Change in Mass (%) - dry, Sorption: 7.68%
[1]; 92.0 % RH, 25° C.
  Change in Mass (%) - dry, Desorption: 8.25%
  Change in Mass (%) - dry, Sorption: 8.31%
